GI50 and bioavailability data for 15 compounds are collected here from patent US10342796B2, “Acrylanilide derivative, preparation method, and applications thereof in pharmacy” (Ancureall Pharmaceutical (Shanghai) Co., Ltd., priority 2015, dated 2019).

Read-outs that look alike come from different tables or passages of the source.

Series [1] relates to SNU1040 (HER2 V777M positive). Nature of the series: Growth inhibition GI50 in vitro (CCK8/MTT, 72 h). It counts as cell-based. As to conditions: Homo sapiens, read-out: GI50 SNU-1040 (HER2 V777M).
In another series the test system is ZR-75-30 (Her2 amp). In words: Growth inhibition GI50 in vitro (CCK8/MTT, 72 h). The series is classed as cell-based. As to conditions: Homo sapiens, ZR-75-30, EGFR wt.
Another series relates to HCC1954 (Her2 amp). Nature of the series: Growth inhibition GI50 in vitro (CCK8/MTT, 72 h). The conditions noted are these: Homo sapiens, HCC1954, EGFR wt. It counts as cell-based.
The next series deals with H2170 (Her2 amp). Nature of the series: Growth inhibition GI50 in vitro (CCK8/MTT, 72 h). The conditions noted are these: Homo sapiens, NCI-H2170, H2170, EGFR wt. It counts as cell-based.
In another series the test system is SH-SY5Y (ALK F1174L). Nature of the series: Growth inhibition GI50 in vitro (CCK8/MTT, 72 h). It counts as cell-based. As to conditions: Homo sapiens, EGFR wt. As to the method: Neuroblastoma cell line SH-SY5Y (ALK F1174L positive) (Shanghai Cell Bank of Chinese Academy of Sciences) was cultured with MEM complete medium (supplement with 10% FBS, 1% NEAA, 1% double-antibiotics and 1 mM of sodium pyruvate).
The suspension cells were collected by centrifugation. The supernatant was discard and the cell pellet was resuspended and counted. Different cell concentrations (5˜10×10^4 cells/mL) were prepared according to the growth cycle of each cell line and then seeded on a 96-well plate (Corning), 100 μL/well. The cells were incubated over night at 37° C., 5% CO2. The compounds were added to the cells on the second day with 2 wells in parallel. The final concentration of organic solvent shall not exceed 1%. The cells were continually incubated for 72 h, and then subjected to MTT assay.
The present compounds and the reference compounds were dissolved with DMSO (Sigma), respectively. […] The storage concentration of compounds was 10 mM and kept at −20° C. They were diluted by 2 times or 10 times with serial dilution before using.
Dojindo CCK8 reagent kit was used as MTT assay. […] FC meter was used as microplate reader.
Adherent cell culture medium was discard and immediately replaced with fresh prepared medium which contains 10% CCK8 reagent (100 μL/well). For the suspension cells, CCK8 was directly added to 10% of the final concentration. The cells were continually incubated for 1˜4 h. When the color of control wells turned to dark yellow, the absorption value was measured at OD450 nm. The cell growth rate was calculated according to the following formula: cell growth rate (%)=100*(T−T0)/(C−T0), T=optical density of drug treatment cell well—optical density of blank control well; T0=optical density of cell well before drug treatment—optical density of blank control well; C=optical density of cell well of solvent control group—optical density of blank control well. […] The experiment was independently repeated 1˜3 times, and subject to biological statistical analysis.
Growth inhibition assay was conducted in the cell lines shown Table 14 with the different oncogene mutations. Each compound started at 1000 nM as an initial concentration and was diluted by 2 times with serial dilution to 0.03 nM.

A further series can be described thus: Pharmacokinetics in rat. The series is classed as in vivo, Sprague-Dawley (SD) rats. The conditions noted are these: male, Sprague-Dawley, plasma, SD rat, iv 5 mg/kg, solvent water. As to the method:
Sprague-Dawley (SD) rats (male) were purchased from Shanghai SIPPR BK Laboratory Animals Co. and kept under specific pathogen-free conditions adaptively for 7 days in the Shanghai University of Traditional Chinese Medicine animal care facility (All animal studies were conducted with the approval of the University Ethics Committee). The rats were randomly divided to 2 groups (3 rats/group) for each compound. One group was administrated by tail vein injection (iv) and the other group was intragastrically administrated. The compound was formulated into a clear aqueous solution with methanesulfonic acid, PH>3.5. The rats were starved for 12 hours before drug administration and the blood samples were collected from the orbital plexus at 0 min (before drug administration), 2 min, 5 min, 15 min, 30 min, 1 h, 2 h, 4 h, 6 h, 8 h and 24 h, respectively. Each blood sample was added to a 1.5 mL centrifuge tube with heparin sodium and then centrifuged at 8000 rpm at 4° C. for 3 min. Upper blood serum was collected. The compound concentration in plasma was determined by LC-MS/MS. The pharmacokinetics parameters were calculated with the professional pharmacokinetics software WinNonlin. The experiment was repeated once.

Where [2] appears, read: Table 16, 1000 nM to 0.03 nM serial dilution.

The term GI50 denotes the concentration at which growth is held to half of that of the control. In the case of `C=CC(=O)Nc1cc(Nc2nccc(-c3cn(C)c4ccccc34)n2)c(OC)cc1N(C)CCN(C)C` [AZD9291, reference compound], the concentration for 50% growth inhibition (GI50) in series [1] is 156 nM; in the series with ZR-75-30 (Her2 amp), 31 nM; in the series with HCC1954 (Her2 amp), over 1000 nM; in the series on H2170 (Her2 amp), 117 nM; with SH-SY5Y (ALK F1174L), over 1000 nM.

Take `C=CC(=O)Nc1cc(Nc2nccc(Nc3cccc(Cl)c3)n2)c(OC)cc1N(C)CCN(C)C` [Compound 2, N-(5-(4-(3-chloro-phenylamino)-pyrimidin-2-ylamino)-2-(2-(dimethylamino-ethyl)-methyl-amino)-4-methoxyl-phenyl)-acrylamide]: the concentration for 50% growth inhibition (GI50) with ZR-75-30 (Her2 amp) was 6 nM; in the series with HCC1954 (Her2 amp), 375 nM; with H2170 (Her2 amp) it was 12.6 nM; with SH-SY5Y (ALK F1174L), over 1000 nM.

One may read the bioavailability as the share of a dose that reaches the circulation, judged against a reference dose that is usually intravenous. The low end stands for poor availability, the high end for good availability. As to `C=CC(=O)Nc1cc(Nc2nccc(Nc3ccc(OCc4ccccn4)c(Cl)c3)n2)c(OC)cc1N(C)CCN(C)C` [Compound 18, N-(5-(4-(3-chloro-4-(pyridin-2-methoxyl)phenylamino)pyrimidin-2-ylamino)-2-((2-(dimethylamino)ethyl)(methyl)amino)-4-methoxyl-phenyl)-acrylamide], the GI50 is 2.1 nM in the series on ZR-75-30 (Her2 amp), 312 nM in the series on HCC1954 (Her2 amp), 19.5 nM with H2170 (Her2 amp) and over 1000 nM with SH-SY5Y (ALK F1174L). Also, the bioavailability in “Pharmacokinetics in rat” (po 25 mg/kg) is 50.3%.

As for `C=CC(=O)Nc1cc(Nc2ncc(Cl)c(Nc3ccc(OCc4ccccn4)c(Cl)c3)n2)c(OC)cc1N(C)CCN(C)C` [Compound 19, N-(5-(5-chloro-4-(3-chloro-4-(pyridin-2-methoxyl)phenylamino)-pyrimidin-2-ylamino)-2-((2-(dimethylamino)ethyl)(methyl)amino)-4-methoxyl-phenyl)-acrylamide], the concentration for 50% growth inhibition (GI50) is 2.1 nM in the series with ZR-75-30 (Her2 amp), 312 nM in the series on HCC1954 (Her2 amp), 14.6 nM with H2170 (Her2 amp) and over 1000 nM in the series with SH-SY5Y (ALK F1174L).

The compound `C=CC(=O)Nc1cc(Nc2nccc(-n3ccc4ccc(F)cc43)n2)c(OC)cc1N(C)CCN(C)C` [Compound 63, N-(5-(4-(6-fluoro-1H-indol-1-yl)-pyrimidin-2-ylamino)-2-((2-(dimethylamino)ethyl)-methyl-amino)-4-methoxyl-phenyl)-acrylamide] had a bioavailability in “Pharmacokinetics in rat” (po 25 mg/kg) of 55.8%.

In the case of `C=CC(=O)Nc1cc(Nc2nccc(-n3ccc4c(OC)cccc43)n2)c(OC)cc1N(C)CCN(C)C` [Compound 99, N-(5-(4-(4-methoxyl-1H-indol-1-yl)-pyrimidin-2-ylamino)-2-(2-(dimethylamino-ethyl)-methyl-amino)-4-methoxyl-phenyl)-acrylamide], the GI50 in series [1] (setting [2]) came out at 19.5 nM. For the same compound, in “Pharmacokinetics in rat” (po 50 mg/kg), the bioavailability worked out at 40.9%.

Take `C=CC(=O)Nc1cc(Nc2nccc(-n3cnc4ccccc43)n2)c(OC)cc1N(C)CCN(C)C` [Compound 106]: the concentration for 50% growth inhibition (GI50) was 12 nM in the series on ZR-75-30 (Her2 amp), 375 nM in the series on HCC1954 (Her2 amp), 9.4 nM in the series on H2170 (Her2 amp) and over 1000 nM with SH-SY5Y (ALK F1174L).

`C=CC(=O)Nc1cc(Nc2ncnc(Nc3cccc(F)c3)n2)c(OC)cc1N(C)CCN(C)C` [Compound 114, N-(5-(4-(3-fluoro-phenylamino)-[1,3,5]triazin-2-ylamino)-2-((2-dimethylamino-ethyl)-methyl-amino)-4-methoxyl-phenyl)-acrylamide]: the GI50 in the series on ZR-75-30 (Her2 amp) was 1.1 nM; with HCC1954 (Her2 amp), 37.5 nM; with H2170 (Her2 amp) it was 4.8 nM; in the series on SH-SY5Y (ALK F1174L), over 1000 nM.

For `C=CC(=O)Nc1cc(Nc2ncnc(Nc3cccc(Br)c3)n2)c(OC)cc1N1CCC(N2CCCC2)CC1` [Compound 118], the 50% growth inhibitory concentration (GI50) is 2.6 nM with ZR-75-30 (Her2 amp), 37.5 nM with HCC1954 (Her2 amp) and 6.8 nM in the series with H2170 (Her2 amp).

As to `C=CC(=O)Nc1cc(Nc2cc(Nc3cc(OC)c(Cl)cc3Cl)ncn2)c(OC)cc1N(C)CCN(C)C` [Compound 136, N-(5-(6-(2,4-dichloro-5-methoxyl-phenylamino)-pyrimidin-4-ylamino)-2-((2-dimethylamino-ethyl)-methyl-amino)-4-methoxyl-phenyl)-acrylamide], in series [1] (setting [2]), the concentration for 50% growth inhibition (GI50) stood at 16.2 nM.

`C=CC(=O)Nc1cc(Nc2cc(Nc3ccc(F)c(Cl)c3)ncn2)c(OC)cc1N(C)CCN(C)C` [Compound 140, N-(5-(6-(3-chloro-4-fluoro-phenylamino)-pyrimidin-4-ylamino)-2-((2-dimethylamino-ethyl)-methyl-amino)-4-methoxyl-phenyl)-acrylamide]: the GI50 is 1.5 nM in the series on ZR-75-30 (Her2 amp), 26.5 nM in the series with HCC1954 (Her2 amp), 4.8 nM in the series on H2170 (Her2 amp) and over 1000 nM in the series with SH-SY5Y (ALK F1174L).

Regarding `C=CC(=O)Nc1cc(Nc2cc(Nc3ccc(F)c(Cl)c3)ncn2)c(OC)cc1N1CCN(C2CCN(C)CC2)CC1` [Compound 147, N-(5-(6-(3-chloro-4-fluoro-phenylamino)-pyrimidin-4-ylamino)-4-methoxyl-2-(4-(1-methylpiperidin-4-yl)-piperazin-1-yl)-phenyl)-acrylamide], the GI50 was 1.5 nM in the series with ZR-75-30 (Her2 amp), 26.5 nM in the series with HCC1954 (Her2 amp), 4.8 nM with H2170 (Her2 amp) and over 1000 nM in the series on SH-SY5Y (ALK F1174L).

`C=CC(=O)Nc1cc(Nc2cc(-c3cn(C(C)C)c4ccccc34)ncn2)c(OC)cc1N(C)CCN(C)C` [Compound 183]: the GI50 is 6 nM in the series with ZR-75-30 (Her2 amp), 156 nM with HCC1954 (Her2 amp), 12.5 nM with H2170 (Her2 amp) and over 1000 nM in the series on SH-SY5Y (ALK F1174L).

For the compound `C=CC(=O)Nc1cc(Nc2nccc(-n3ccc4c(OCCOC)cccc43)n2)c(OC)cc1N(C)CCN(C)C` [Compound 205, N-(5-(4-(4-(2-methoxyl-ethoxyl)-1H-indol-1-yl)-pyrimidin-2-ylamino)-2-(2-(dimethylamino-ethyl)-methyl-amino)-4-methoxyl-phenyl)-acrylamide], the GI50 in series [1] (setting [2]) came out at 14.3 nM.

On to `C=CC(=O)Nc1cc(Nc2cc(Nc3cc(F)c(OC)c(Cl)c3)ncn2)c(OC)cc1N(C)CCN(C)C` [Compound 236, N-(5-(6-(3-chloro-5-fluoro-4-methoxyphenylamino)-pyrimidin-4-yl-amino)-2-((2-dimethylamino-ethyl)-methyl-amino)-4-methoxyl-phenyl)-acrylamide], for which the GI50 in series [1] (setting [2]) was found to be 5.42 nM.
